Measured values as given in US20240307382A1, “MODULATORS OF THE INTEGRATED STRESS PATHWAY” (Calico Life Sciences LLC, priority 2017, published 2024).

Test system: HEK293T cells carrying the ATF4 luciferase reporter
Test: ATF4-Luc assay (ATF4 luciferase reporter, tunicamycin-treated cells)
Format: cell-based
Conditions: Homo sapiens, HEK-293T, 1 μg/mL tunicamycin, 7 hours
Experimental: In order to test exemplary compounds of the invention in a cellular context, a stable VWMD cell line was first constructed. The ATF4 reporter was prepared by fusing the human full-length ATF4 5′-UTR (NCBI Accession No. BC022088.2) in front of the firefly luciferase (FLuc) coding sequence lacking the initiator methionine as described in Sidrauski et al (eLife 2013). The construct was used to produce recombinant retroviruses using standard methods and the resulting viral supermatant was used to transduce ITEK293T cells, which were then subsequently selected with puromycin to generate a stable cell line.
HTEK293T cells carrying the ATF4 luciferase reporter were plated on polylysine coated 384-well plates (Greiner Bio-one) at 30,000 cells per well. Cells were treated the next day with 1 μg/mL tunicamycin and 200 nM of a compound of Formula (I) for 7 hours. Luminescence was measured using One Glo (Promega) as specified by the manufacturer. Cells were maintained in DMEM with L-glutamine supplemented with 10% heat-inactivated FBS (Gibco) and Antibiotic-Antimycotic solution (Gibco).
Table 2 below summarizes the EC50 data obtained using the ATF4-Luc assay for exemplary compounds of the invention.

First: O=C(COc1ccc(Cl)c(F)c1)NC12CCC(NC(=O)c3ccc(OC(F)(F)F)cn3)(C1)C2 [Compound 297, N-{4-[2-(4-chloro-3-fluorophenoxy)acetamido]bicyclo[2.1.1]hexan-1-yl}-5-(trifluoromethoxy)pyridine-2-carboxamide]
Second: O=C(COc1ccc(Cl)c(F)c1)NC12CCC(NC(=O)c3cc(CO)ccn3)(C1)C2 [Compound 333, N-{4-[2-(4-chloro-3-fluorophenoxy)acetamido]bicyclo[2.1.1]hexan-1-yl}-4-(hydroxymethyl)pyridine-2-carboxamide]
The EC50 of the first is lower: less than 50 nM for the first, 1000 to 2000 nM for the second. The first is the more potent here.

Compared with `N#CCCc1ccc(C(=O)NC23CC(NC(=O)COc4ccc(Cl)c(F)c4)(C2)C3)nc1` [Compound 335, N-{3-[2-(4-chloro-3-fluorophenoxy)acetamido]bicyclo[1.1.1]pentan-1-yl}-5-(2-cyanoethyl)pyridine-2-carboxamide], `O=C(COc1ccc(Cl)c(Cl)c1)NC12CC(NC(=O)c3ccc(Cl)cn3)(C1)C2` [Compound 691, 5-chloro-N-{3-[2-(3,4-dichlorophenoxy)acetamido]bicyclo[1.1.1]pentan-1-yl}pyridine-2-carboxamide] is lower in EC50: 50 to 250 nM for the first, less than 50 nM for the second. The second is the more potent here.

Compared with `COc1ccnc(C(=O)NC23CCC(NC(=O)COc4ccc(Cl)c(F)c4)(CC2)C(O)C3)c1` (stereo not shown) [Compound 924, N-{4-[2-(4-chloro-3-fluorophenoxy)acetamido]-3-hydroxybicyclo[2.2.2]octan-1-yl}-4-methoxypyridine-2-carboxamide], `O=C(COc1ccc(Cl)c(F)c1)NC12CCC(NC(=O)c3coc(C(F)F)n3)(CC1)C[C@@H]2O` [Compound 969, N-{(3S)-4-[2-(4-chloro-3-fluorophenoxy)acetamido]-3-hydroxybicyclo[2.2.2]octan-1-yl}-2-(difluoromethyl)-1,3-oxazole-4-carboxamide] is lower in EC50: 1000 to 2000 nM for the first, less than 50 nM for the second. The second is the more potent here.

First: O=C(COc1ccc(Cl)c(F)c1)NC12CCC(NC(=O)c3ccc(-c4ccc(F)cc4)cn3)(CC1)CC2O (stereo not shown) [Compound 939, N-{4-[2-(4-chloro-3-fluorophenoxy)acetamido]-3-hydroxybicyclo[2.2.2]octan-1-yl}-5-(4-fluorophenyl)pyridine-2-carboxamide]
Second: O=C(COc1ccc(Cl)c(F)c1)NC12CCC(NC(=O)c3cccc(-c4cccc(F)c4)n3)(CC1)CC2O (stereo not shown) [Compound 952, N-{4-[2-(4-chloro-3-fluorophenoxy)acetamido]-3-hydroxybicyclo[2.2.2]octan-1-yl}-6-(3-fluorophenyl)pyridine-2-carboxamide]
The EC50 of the first is higher: 250 to 1000 nM for the first, less than 50 nM for the second.

`CCc1cncc(C(=O)NC23CC(NC(=O)COc4ccc(Cl)c(F)c4)(C2)C3)c1` [Compound 948, N-{3-[2-(4-chloro-3-fluorophenoxy)acetamido]bicyclo[1.1.1]pentan-1-yl}-5-ethylpyridine-3-carboxamide] and `CCc1cncc(C(=O)NC23CC(NC(=O)COc4ccc(Cl)c(Cl)c4)(C2)C3)c1` [Compound 949, N-{3-[2-(3,4-dichlorophenoxy)acetamido]bicyclo[1.1.1]pentan-1-yl}-5-ethylpyridine-3-carboxamide] cannot be ordered by EC50: less than 50 nM for the first, less than 50 nM for the second.

`O=C(COc1ccc(Cl)c(F)c1)NC12CCC(NC(=O)c3cnc4cc(F)ccc4n3)(CC1)[C@@H](O)C2` [Compound 950, N-{(2S)-4-[2-(4-chloro-3-fluorophenoxy)acetamido]-2-hydroxybicyclo[2.2.2]octan-1-yl}-6-fluoroquinoxaline-2-carboxamide] and `O=C(COc1ccc(Cl)c(F)c1)NC12CCC(NC(=O)c3cnc4cc(C(F)(F)F)ccc4n3)(CC1)C[C@@H]2O` [Compound 973, N-{(3S)-4-[2-(4-chloro-3-fluorophenoxy)acetamido]-3-hydroxybicyclo[2.2.2]octan-1-yl}-6-(trifluoromethyl)quinoxaline-2-carboxamide] cannot be ordered by EC50: less than 50 nM for the first, less than 50 nM for the second.

`O=C(COc1ccc(Cl)c(F)c1)NC12CC(NC(=O)c3cnc4cc(F)ccc4n3)(C1)C2` [Compound 951, N-{3-[2-(4-chloro-3-fluorophenoxy)acetamido]bicyclo[1.1.1]pentan-1-yl}-6-fluoroquinoxaline-2-carboxamide] and `O=C(COc1ccc(Cl)c(Cl)c1)NC12CC(NC(=O)c3cc(O)c4cc(Cl)ccc4n3)(C1)C2` [Compound 971, 6-chloro-N-{3-[2-(3,4-dichlorophenoxy)acetamido]bicyclo[1.1.1]pentan-1-yl}-4-hydroxyquinoline-2-carboxamide] cannot be ordered by EC50: less than 50 nM for the first, less than 50 nM for the second.

First: N#Cc1cnccc1NC12CC(NC(=O)COc3ccc(Cl)c(F)c3)(C1)C2 [Compound 953, 2-(4-chloro-3-fluorophenoxy)-N-{3-[(3-cyanopyridin-4-yl)amino]bicyclo[1.1.1]pentan-1-yl}acetamide]
Second: COC(=O)c1ccnc(NC23CC(NC(=O)COc4ccc(Cl)c(F)c4)(C2)C3)c1 [Compound 964, methyl 2-({3-[2-(4-chloro-3-fluorophenoxy)acetamido]bicyclo[1.1.1]pentan-1-yl}amino)pyridine-4-carboxylate]
The EC50 of the first is lower: 50 to 250 nM for the first, greater than 2000 nM for the second.

Compared with `O=C(COc1ccc(Cl)c(F)c1)NC12CC(Nc3cccc(-n4ccccc4=O)n3)(C1)C2` [Compound 954, 2-(4-chloro-3-fluorophenoxy)-N-{3-[(2-oxo-2H-[1,2′-bipyridin]-6′-yl)amino]bicyclo[1.1.1]pentan-1-yl}acetamide], `NC(=O)c1cccc(NC23CC(NC(=O)COc4ccc(Cl)c(F)c4)(C2)C3)n1` [Compound 961, 6-({3-[2-(4-chloro-3-fluorophenoxy)acetamido]bicyclo[1.1.1]pentan-1-yl}amino)pyridine-2-carboxamide] is lower in EC50: greater than 2000 nM for the first, 1000 to 2000 nM for the second.

`O=C(COc1ccc(Cl)c(F)c1)NC12CC(Nc3ccnc(-n4ccnc4)c3)(C1)C2` [Compound 955, 2-(4-chloro-3-fluorophenoxy)-N-(3-{[2-(1H-imidazol-1-yl)pyridin-4-yl]amino}bicyclo[1.1.1]pentan-1-yl)acetamide] and `O=C(COc1ccc(Cl)c(F)c1)NC12CC(Nc3cnc4nccnc4c3)(C1)C2` [Compound 966, 2-(4-chloro-3-fluorophenoxy)-N-{3-[(pyrido[2,3-b]pyrazin-7-yl)amino]bicyclo[1.1.1]pentan-1-yl}acetamide] fall in the same range of EC50: 250 to 1000 nM for the first, 250 to 1000 nM for the second.

Compared with `O=C(COc1ccc(Cl)c(F)c1)NC12CC(Nc3cccc(N4CCOCC4)n3)(C1)C2` [Compound 957, 2-(4-chloro-3-fluorophenoxy)-N-(3-{[6-(morpholin-4-yl)pyridin-2-yl]amino}bicyclo[1.1.1]pentan-1-yl)acetamide], `O=C(COc1ccc(Cl)c(F)c1)NC12CC(Nc3cc(N4CCOCC4)ccn3)(C1)C2` [Compound 963, 2-(4-chloro-3-fluorophenoxy)-N-(3-{[4-(morpholin-4-yl)pyridin-2-yl]amino}bicyclo[1.1.1]pentan-1-yl)acetamide] is higher in EC50: 250 to 1000 nM for the first, greater than 2000 nM for the second.

Compared with `O=C(COc1ccc(Cl)c(F)c1)NC12CC(Nc3ccc4ncnc(N5CCOCC5)c4c3)(C1)C2` [Compound 958, 2-(4-chloro-3-fluorophenoxy)-N-(3-{[4-(morpholin-4-yl)quinazolin-6-yl]amino}bicyclo[1.1.1]pentan-1-yl)acetamide], `CN1CCN(c2ncnc3ccc(NC45CC(NC(=O)COc6ccc(Cl)c(F)c6)(C4)C5)cc23)CC1` [Compound 959, 2-(4-chloro-3-fluorophenoxy)-N-(3-{[4-(4-methylpiperazin-1-yl)quinazolin-6-yl]amino}bicyclo[1.1.1]pentan-1-yl)acetamide] is higher in EC50: 50 to 250 nM for the first, greater than 2000 nM for the second.

First: COC(=O)c1ccc2nccc(NC34CC(NC(=O)COc5ccc(Cl)c(F)c5)(C3)C4)c2c1 [Compound 960, methyl 4-({3-[2-(4-chloro-3-fluorophenoxy)acetamido]bicyclo[1.1.1]pentan-1-yl}amino)quinoline-6-carboxylate]
Second: CCOC(=O)c1cncc(NC23CC(NC(=O)COc4ccc(Cl)c(F)c4)(C2)C3)c1 [Compound 965, ethyl 5-({3-[2-(4-chloro-3-fluorophenoxy)acetamido]bicyclo[1.1.1]pentan-1-yl}amino)pyridine-3-carboxylate]
The EC50 of the first is lower: less than 50 nM for the first, 250 to 1000 nM for the second.

Compared with `O=C(COc1ccc(Cl)c(F)c1)NC12CC(Nc3cc(N4CCCC4)ccn3)(C1)C2` [Compound 962, 2-(4-chloro-3-fluorophenoxy)-N-(3-{[4-(pyrrolidin-1-yl)pyridin-2-yl]amino}bicyclo[1.1.1]pentan-1-yl)acetamide], `O=C(COc1ccc(Cl)c(F)c1)NC12CC(NC(=O)c3cc4c(cn3)CCCC4)(C1)C2` [Compound 972, N-{3-[2-(4-chloro-3-fluorophenoxy)acetamido]bicyclo[1.1.1]pentan-1-yl}-5,6,7,8-tetrahydroisoquinoline-3-carboxamide] is lower in EC50: 1000 to 2000 nM for the first, 50 to 250 nM for the second.

`CN(C(=O)c1cc(C(F)F)no1)C12CCC(NC(=O)COc3ccc(Cl)c(F)c3)(CC1)[C@@H](O)C2` [Compound 967, N-{(3S)-4-[2-(4-chloro-3-fluorophenoxy)acetamido]-3-hydroxybicyclo[2.2.2]octan-1-yl}-3-(difluoromethyl)-N-methyl-1,2-oxazole-5-carboxamide] and `Cc1cc(C(=O)N(C)C23CCC(NC(=O)COc4ccc(Cl)c(Cl)c4)(CC2)[C@@H](O)C3)on1` [Compound 968, N-{(3S)-4-[2-(3,4-dichlorophenoxy)acetamido]-3-hydroxybicyclo[2.2.2]octan-1-yl}-N,3-dimethyl-1,2-oxazole-5-carboxamide] fall in the same range of EC50: 1000 to 2000 nM for the first, 1000 to 2000 nM for the second.

`CC(O)c1ncc(C(=O)NC23CCC(NC(=O)COc4ccc(Cl)c(F)c4)(CC2)CC3)s1` (stereo not shown) [Compound 970, N-{4-[2-(4-chloro-3-fluorophenoxy)acetamido]bicyclo[2.2.2]octan-1-yl}-2-(1-hydroxyethyl)-1,3-thiazole-5-carboxamide] showed an EC50 greater than 2000 nM.
